The target in assay [1] is T1, gamma secretase γ and ε cleavage of Fas-APPsw-DD (Homo sapiens, UniProt P49768).
T1 construct: active gamma secretase is endogenously and constitutively produced by the cell cultures; endogenous in cells; host or cells: HEK 293, transfected with Fas-APPsw-DD
As to the kind of experiment: Concurrent Aβ and AICD ELISA in Fas-APPsw-DD transfected 293 cells (APP γ versus ε cleavage). In kind it is cell-based. The method, then: Polyclonal antibody AICD ELISA. HEK 293 cells were grown under standard conditions to ˜90% confluence. Cells were harvested, counted, and subsequently plated onto PDL-coated 60 mm dishes at 2×10^6 cells/dish in 5 mL media. The cells were allowed to settle onto the dishes for ˜4 hours. Transfection of various construct into cells was performed using standard techniques using Lipofectamine 2000™ (LF2K) (Invitrogen). Briefly, 2 μg plasmid DNA and 4 μL LF2K were diluted into separate 150 μL aliquots of Opti-MEM (Gibco), and allowed to stand for 10-15 minutes. The two aliquots were then mixed, and the DNA:Lipid complex allowed to form for about 20 minutes. The 300 μL DNA:Lipid complex was then added to the cells in 3 mL fresh media, and incubated overnight. In order to administer potential or known gamma secretase inhibitor compounds to cells, the transfected cells were harvested, replated into PDL-coated 24-well plates at 200,000 cells/well, and allowed to settle onto the plates for ˜4 hours. Cells were washed, and 500 μL fresh media added. […]
The term ‘non-selective’ in this instance refers to lack of selectivity for cell Aβ over Notch signaling (or GammaAPP over GammaNotch). […] The calculated γ/ε selectivity of the non-selective compounds (FIG. 11 and Table I) were 0.7, 1.1, 1.8 and 1.9 for DAPT, 44989, 46719 and the Merck compound, respectively. […]

The target in assay [2] is T2, gamma secretase cleavage of C99GVP (AICD-GVP) (Homo sapiens, UniProt P49768).
T2 construct: active gamma secretase is endogenously and constitutively produced by the cell cultures; endogenous in cells; host or cells: HEK 293, co-transfected with C99GVP, pG5E1B-luc and pCMV-β-gal
Briefly: Luciferase reporter gene assay, AICD-GVP transactivation from C99GVP in HEK293 cells. Conditions: C99-GVP, FIG. 5C. The format is cell-based. The procedure:
Luciferase Reporter Gene Assay: Luciferase reporter assays were carried out 48 hr post-transfection. Cells seeded on 96-well plates (BD Biosciences) were washed once with PBS and harvested in 20 μl of reporter lysis buffer (Promega) per well. After adding 100 μl of luminescent substrate (Promega), the luciferase activity was measured with a MicroLumatPlus microplate luminometer (Berthold Technologies). The β-galactosidase activity was measured similarly, using a luminescent β-galactosidase substrate (BD Biosciences). As a control for transfection efficiency and general effect on transcription, the luciferase activity was normalized by measuring β-galactosidase activity on a duplicate plate. All measurements were done in triplicate and repeated at least three times.
Luciferase Assay. After confirming AICD-GVP generation in HEK cells, its ability to transactivate a luciferase reporter gene that contains Gal4 response elements in the upstream activation sequence (UAS) was tested. […] Some residual luciferase activity remained in the presence of excess gamma secretase inhibitors, even though identical treatment completely abolished AICD production as measured by Western blot (FIG. 5B). […]

Assay [3] has as its system gamma secretase (secreted Aβ40 and Aβ42). Briefly: Aβ sandwich ELISA of media from C99GVP or APP transfected HEK cells treated with inhibitors. In kind it is cell-based, Human. The procedure: Inhibitor Treatment of Transfected HEK Cell: The transition state analogue gamma secretase inhibitor-L685,458 (Sigma) and the peptidomimetic inhibitor-DAPT (Dovey, H. F., et al., J Neurochem., 2001; 76:173-181) were dissolved in DMSO to make 20 mM stocks. Similarly, a number of Elan's series of sulfonamide inhibitors were prepared and used as described herein (see, also FIGS. 11-14). Inhibitors were added to cell cultures (e.g., HEK) at the indicated final concentration, and the treated cells were harvested 48 h post-transfection. The metallo-proteinase inhibitor TAPI-1 (Calbiochem) was used at a final concentration of 40 μM. The Aβ-degrading enzyme inhibitors, Bacitracin (Calbiochem) and phosphoramidon (Calbiochem) were used at final concentration of 1 mg/ml and 40 μM, respectively. All inhibitor experiments were performed in triplicate and repeated at least three times.
ELISAs used to quantify different Aβ species were performed using standard techniques as described above and in (Johnson-Wood, K., et al., Proc. Natl. Acad. Sci. U.S.A., 1997; 94: 1550-1555, incorporated by reference). The Aβ40 and Aβ42 peptides in the samples were captured onto 2G3 or 21F12 antibody coated plates, respectively, and detected with a biotinylated 2H3 antibody. The fluorescence signal generated from a streptavidin-alkaline phosphatase conjugate (Roche) was measured with a CytoFlour microplate reader (Applied Biosystems). Synthetic Aβ40 or Aβ42 peptides (Anaspec) were used to generate standard curves (FIG. 10). All measurements were done in triplicate.
Next, Aβ generation was characterized from C99GVP. Wild type HEK cells and the mock-transfection control secreted little Aβ into the conditioned media (FIG. 5D, lane 1). In contrast, transient expression of C99GVP led to robust Aβ production, as measured by IP/Western blot (FIG. 5D) and ELISAs that detect Aβ 40 and Aβ42 species, respectively ([…], top panel). […] Finally, we compared the Aβ-lowering potency of two inhibitors, using either C99GVP or the wild type APP as substrate. As determined by ELISA, the respective IC50 values for the two substrates are essentially identical (FIG. 5E).

Assay [4] relates to nuclear AICD-GVP in COS-7 cells. As to the kind of experiment: Immunostaining, subcellular distribution of AICD-GVP in transfected COS-7 cells. The format is cell-based. The method, then:
Immunostaining: Wild type or transiently transfected COS-7 cells (ATCC) were fixed at room temperature with 2% paraformaldehyde in PBS for 20 min and subsequently permeabilized with 0.2% Triton X-100 in PBS for 10 min. C99GVP and mutant substrates as well as AICD-GVP were detected by incubating the samples sequentially with polyclonal anti-VP16 for 2 h and Rhodamine-conjugated donkey anti-goat secondary antibody (Jackson Laboratory Cat. #705-165-003) for 1 h. All staining was visualized on a Bio-Rad MRC 1024ES confocal microscope (Bio-Rad) and captured with a coupled CCD camera.

In the case of `C[C@H](NC(=O)Cc1cc(F)cc(F)c1)C(=O)N[C@H](C(=O)OC(C)(C)C)c1ccccc1` [DAPT], the “γ/ε selectivity = IC50 AICD/IC50 Aβ” value in assay [1] is reported as 0.7. For the same compound, the “luciferase reporter transactivation by AICD-GVP” value in assay [2] is “block luciferase reporter transactivation”. Moreover, the “secreted Aβ (Aβ40 and Aβ42)” value in assay [3] (5 μM, 24 h, FIG. 5D) is reported as “block secreted Aβ”. The “Aβ potency (IC50) with C99GVP versus native APP substrate” value in assay [3] (FIG. 5E) was “equal Aβ potency”. Moreover, the “nuclear staining of AICD-GVP” value in assay [4] (C99GVP transfected COS-7 cells, 5 μM, FIG. 5F) is recorded as “abolished”. Further, the “nuclear staining of JMD chimeras” value in assay [4] (JMD chimeras in COS-7 cells, FIG. 6G) is “abolished”.

Values taken from patent US20110306071A1, “Compositions and Methods for Identifying Substrate Specificity of Inhibitors of Gamma Secretase” (ELAN PHARMACEUTICALS, INC., priority 2007, published 2011).
